{"source": "patent US9724355B2", "about": "“Fulvestrant compositions and methods of use” (SHIMODA BIOTECH (PTY) LTD, priority 2010, dated 2017)", "origin": "cited, not measured here", "settings": "cited from earlier work", "data": [{"molecule": "CC(O)COC[C@H]1O[C@@H]2O[C@H]3[C@H](O)[C@@H](O)[C@@H](O[C@H]4[C@H](O)[C@@H](O)[C@@H](O[C@H]5[C@H](O)[C@@H](O)[C@@H](O[C@H]6[C@H](O)[C@@H](O)[C@@H](O[C@H]7[C@H](O)[C@@H](O)[C@@H](O[C@H]8[C@H](O)[C@@H](O)[C@@H](O[C@H]1[C@H](O)[C@H]2O)O[C@@H]8COCC(C)O)O[C@@H]7COCC(C)O)O[C@@H]6COCC(C)O)O[C@@H]5COCC(C)O)O[C@@H]4COCC(C)O)O[C@@H]3COCC(C)O", "note": "(stereo partly drawn) [Hydroxypropyl beta-cyclodextrin]", "values": [{"measurement": "Water Solubility (25° C.)", "result": ">750", "unit": "mg/mL"}]}, {"molecule": "Sulfobutylether beta-cyclodextrin", "values": [{"measurement": "Water Solubility (25° C.)", "result": ">500", "unit": "mg/mL"}]}, {"molecule": "Methyl beta-cyclodextrin", "values": [{"measurement": "Water Solubility (25° C.)", "result": ">750", "unit": "mg/mL"}]}]}
